The text below walks through data of ChEMBL document CHEMBL5050862, “Compounds for inhibiting ly6k and methods of using same” (2021).

Each structure is given as a SMILES string. Calls of active or inactive are those of the source. The calls are words filed in the database; no cut-off is given here.

The subject of assay [1] is 4T1. The assay is described as follows: Antitumor activity against mouse 4T1 cells allografted in syngenetic BALB/c mouse assessed as tumor growth inhibition at 5 mg/kg, IT(Intratumoral) measured at day 11. The assay is classed as functional, organism-based. The conditions noted are these: time 11.0 day.
Assay [2] deals with MDA-MB-231. As to the kind of experiment: Antiproliferative activity against human MDA-MB-231 cells at 100 uM assessed as induction of cells death and measured after 24 hrs by Cell Titer Blue assay relative to control. In kind it is functional, cell-based. In general terms: Resazurin is reduced to fluorescent resorufin, in cell work by metabolically active cells.
Assay [3] deals with MDA-MB-231. As to the kind of experiment: Antiproliferative activity against human MDA-MB-231 cells transfected with LY6K-ShRNA2 at 100 uM assessed as induction of cells death and measured after 24 hrs by Cell Titer Blue assay relative to control. The assay is classed as functional, cell-based.
Assay [4] has as its system MDA-MB-231. The assay is described as follows: Down-regulation of PD-L1 expression in human MDA-MB-231 cells at 2 uM measured after 30 mins by Western blot analysis. In kind it is functional, cell-based. Background: Immunoblotting shows a protein as a band on a membrane.
Assay [5] deals with Mothers against decapentaplegic homolog 2/homolog 3 (Homo sapiens) (UniProt P84022+Q15796). The assay is described as follows: Inhibition of TGF-beta1-induced Smad2/3 phopshorylation in human MDA-MB-231 cells at 2 uM measured after 30 mins by Western blot analysis. In kind it is cell-based.
Chain of Mothers against decapentaplegic homolog 2/homolog 3 (Homo sapiens) (P84022 whole entry, looked up): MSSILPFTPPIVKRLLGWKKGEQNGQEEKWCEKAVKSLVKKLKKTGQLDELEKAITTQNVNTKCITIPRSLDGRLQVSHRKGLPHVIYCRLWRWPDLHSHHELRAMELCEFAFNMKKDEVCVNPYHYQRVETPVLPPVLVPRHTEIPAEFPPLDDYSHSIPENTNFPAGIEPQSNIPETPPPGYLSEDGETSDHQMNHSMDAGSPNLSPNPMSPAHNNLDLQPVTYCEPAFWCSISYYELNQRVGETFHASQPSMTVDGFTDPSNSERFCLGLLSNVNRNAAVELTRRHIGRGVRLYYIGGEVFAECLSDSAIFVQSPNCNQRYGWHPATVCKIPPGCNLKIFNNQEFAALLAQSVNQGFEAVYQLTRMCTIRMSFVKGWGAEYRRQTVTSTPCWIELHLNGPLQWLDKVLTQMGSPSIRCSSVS
Chain of Mothers against decapentaplegic homolog 2/homolog 3 (Homo sapiens) (Q15796 whole entry, looked up): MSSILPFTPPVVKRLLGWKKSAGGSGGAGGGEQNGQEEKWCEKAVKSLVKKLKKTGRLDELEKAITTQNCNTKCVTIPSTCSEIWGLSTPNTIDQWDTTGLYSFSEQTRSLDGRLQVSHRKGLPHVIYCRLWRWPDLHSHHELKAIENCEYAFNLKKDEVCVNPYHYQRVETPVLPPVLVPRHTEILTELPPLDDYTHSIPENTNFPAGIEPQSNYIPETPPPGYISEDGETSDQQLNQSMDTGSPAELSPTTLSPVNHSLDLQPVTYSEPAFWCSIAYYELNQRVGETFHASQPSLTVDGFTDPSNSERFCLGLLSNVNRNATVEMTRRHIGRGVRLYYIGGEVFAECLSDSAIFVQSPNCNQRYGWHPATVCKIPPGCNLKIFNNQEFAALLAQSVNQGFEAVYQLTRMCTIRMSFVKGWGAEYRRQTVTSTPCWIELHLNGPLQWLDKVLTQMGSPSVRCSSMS
Assay [6] concerns the target T1, Signal transducer and activator of transcription 1-alpha/beta (Homo sapiens) (UniProt P42224).
T1 sequence (whole entry): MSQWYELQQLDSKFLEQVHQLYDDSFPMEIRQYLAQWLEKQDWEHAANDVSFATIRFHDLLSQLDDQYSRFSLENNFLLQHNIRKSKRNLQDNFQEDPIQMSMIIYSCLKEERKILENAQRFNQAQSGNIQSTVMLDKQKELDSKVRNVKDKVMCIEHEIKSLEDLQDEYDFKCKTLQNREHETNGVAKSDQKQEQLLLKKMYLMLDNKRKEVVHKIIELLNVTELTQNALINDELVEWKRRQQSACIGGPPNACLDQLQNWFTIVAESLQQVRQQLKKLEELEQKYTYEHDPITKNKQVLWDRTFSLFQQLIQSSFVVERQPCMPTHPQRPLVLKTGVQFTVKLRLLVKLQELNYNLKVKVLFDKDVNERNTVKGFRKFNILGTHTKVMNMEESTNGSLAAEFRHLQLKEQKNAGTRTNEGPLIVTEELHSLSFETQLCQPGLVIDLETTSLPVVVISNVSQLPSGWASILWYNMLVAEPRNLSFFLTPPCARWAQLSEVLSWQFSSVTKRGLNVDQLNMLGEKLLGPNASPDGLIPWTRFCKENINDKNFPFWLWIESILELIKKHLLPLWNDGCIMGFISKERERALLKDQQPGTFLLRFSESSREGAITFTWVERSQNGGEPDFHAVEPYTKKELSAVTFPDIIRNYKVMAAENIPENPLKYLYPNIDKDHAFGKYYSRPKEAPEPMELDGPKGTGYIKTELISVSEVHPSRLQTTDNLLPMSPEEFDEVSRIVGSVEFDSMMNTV
The assay is described as follows: Inhibition of IFN-gamma-induced Stat1 phopshorylation in human MDA-MB-231 cells at 2 uM measured after 30 mins by Western blot analysis. The assay is classed as cell-based.

For assay [7], the system named is MDA-MB-231. The assay is described as follows: Antiproliferative activity against human MDA-MB-231 cells at 2 uM assessed as induction of cells death and measured after 24 hrs by Cell Titer Blue assay relative to control. The assay is classed as functional, cell-based.
Assay [8] concerns MDA-MB-231. The assay is described as follows: Antiproliferative activity against human MDA-MB-231 cells transfected with LY6K-ShRNA2 at 2 uM assessed as induction of cells death and measured after 24 hrs by Cell Titer Blue assay relative to control. In kind it is functional, cell-based.
Assay [9] relates to MDA-MB-231. As to the kind of experiment: Antiproliferative activity against human MDA-MB-231 cells after 24 hrs by Cell Titer Blue assay. In kind it is functional, cell-based. To be noted: MDA-MB-231, 24 h.
The subject of the next assay is Hs-578T. The assay is described as follows: Antiproliferative activity against human Hs-578T cells after 24 hrs by Cell Titer Blue assay. The assay is classed as functional, cell-based.
A further assay concerns BT-549. As to the kind of experiment: Antiproliferative activity against human BT-549 cells after 24 hrs by Cell Titer Blue assay. The conditions noted are these: BT-549, 24 h. The assay is classed as functional, cell-based.
The subject of the next assay is OVCAR-8. As to the kind of experiment: Antiproliferative activity against human OVCAR-8 cells after 24 hrs by Cell Titer Blue assay. The assay is classed as functional, cell-based. To be noted: OVCAR-8, 24 h.
Assay [10] has as its system 4T1. The assay is described as follows: Antitumor activity against mouse 4T1 cells allografted in syngenetic BALB/c mouse assessed as tumor growth inhibition at 5 mg/kg, IT(Intratumoral) measured at day 3. In kind it is functional, organism-based. The conditions noted are these: time 3.0 day.
For the next assay, the system named is E0771. As to the kind of experiment: Antitumor immunity in C57BL/6 mouse xenografted with mouse EO771 cells assessed as reduction in tumor growth at 10 mg/kg, ip administered every 3rd day. To be noted: time 3.0 day. In kind it is functional, organism-based.
Assay [11] deals with 4T1. The assay is described as follows: Antitumor activity against mouse 4T1 cells xenografted mouse assessed as decrease in Cd11b and Gr-1-dual positive […] in peripheral blood at 50 mg/kg, iv. In kind it is functional, organism-based.
Assay [12] deals with 4T1. As to the kind of experiment: Antitumor activity against mouse 4T1 cells xenografted mouse assessed as decrease in myeloid-derived suppressor cells (MDSCs) in peripheral blood at 50 mg/kg, iv. The assay is classed as functional. On the set-up: scale not given: the % may be the effect or the level left.
The test system of assay [13] is 4T1. As to the kind of experiment: Induction of apoptosis in mouse 4T1 cells at 0.1 to 5 uM assessed as increase in PARP cleavage measured after 16 hrs by Western blot analysis. In kind it is functional, cell-based. The conditions noted are these: dose 0.1-5 µM.
Assay [14] relates to 4T1. The assay is described as follows: Induction of apoptosis in mouse 4T1 cells at 0.1 to 5 uM assessed as activation of caspase-3 measured after 16 hrs by Western blot analysis. The assay is classed as functional, cell-based. The conditions noted are these: dose 0.1-5 µM.
Assay [15] relates to 4T1. As to the kind of experiment: Induction of apoptosis in mouse 4T1 cells at 0.1 to 5 uM assessed as activation of caspase-7 measured after 16 hrs by Western blot analysis. In kind it is functional, cell-based. To be noted: dose 0.1-5 µM.
The test system of assay [16] is 4T1. As to the kind of experiment: Down regulation of RhoA in mouse 4T1 cells at 0.1 to 5 uM measured after 16 hrs by Western blot analysis. The assay is classed as functional, cell-based. To be noted: dose 0.1-5 µM.
Assay [17] deals with 4T1. The assay is described as follows: Induction of autophagy in mouse 4T1 cells at 0.1 to 5 uM assessed as activation of LC3B measured after 16 hrs by Western blot analysis. The conditions noted are these: dose 0.1-5 µM. The assay is classed as functional, cell-based.
For assay [18], the system named is 4T1. The assay is described as follows: Effect on total Ly6K levels in mouse 4T1 cells at 0.1 to 5 […] measured by Western blotting analysis. In kind it is functional, cell-based. The conditions noted are these: dose 0.1-5 mM.

On to `Oc1ccc(Cc2ccc(Cl)cc2)c(O)c1`, for which the result with 4T1 [1], in the assay on MDA-MB-231 [2] and with MDA-MB-231 [3] was Active. Besides, the outcome (in the assay with MDA-MB-231 [4]; in assay [5]; in [6]) was inactive.
Take `CCS(=O)(=O)Nc1ccc(Nc2c3ccccc3nc3ccccc23)c(OC)c1`: the outcome (in the assay with MDA-MB-231 [7]; in the assay with 4T1 [10]; in the assay with E0771; with MDA-MB-231 [4]; in [5]; in assay [6]) was Active. Also, the outcome with 4T1 [11], in the assay on 4T1 [13], in the assay on 4T1 [14], in the assay with 4T1 [15], in the assay with 4T1 [16] and in the assay on 4T1 [17] was Active. Besides, in the assay on 4T1 [18], the outcome was Active. Moreover, the result with MDA-MB-231 [8] was inactive. Moreover, the IC50 (in general, the concentration that gives 50% inhibition) in the assay with MDA-MB-231 [9] worked out at 5.68 µM; in the assay with Hs-578T it was 7.31 µM; in the assay with BT-549 it was 7.65 µM; in the assay with OVCAR-8, 4.17 µM. The Activity in the assay on 4T1 [12] stood at 90%.
